SMILES strings stand for the structures.

One data set has as its system catalepsy in mice. The data set is described as follows: Catalepsy mouse model. It is filed as in vivo. The following applies: up to 30 mg/kg, IP. Here is the method:
A catalepsy mouse model was used to investigate a potential side effect of antipsychotic agents.
The catalepsy methodology used herein has been adapted from Tada, M. et al. ((2004). Psychopharmacol., 176, 94-100) as well as Wang et al. ((2000). J. Neurosci., 20, 8305-8314).
The animals (Swiss Webster, female, about 20 g; Charles River) were administered compounds of the invention (1 μg/kg-30 mg/kg ip). Twenty seven minutes after test compound injection, the mice's forepaws were placed on a horizontal steel bar (diameter 0.2 cm), elevated 3-5 cm above the tabletop and the time taken for the animals to remove both paws was recorded for up to 2 min.

Data set [1] concerns locomotor activity in rats. The data set is described as follows: Spontaneous locomotor activity (open field). It is filed as in vivo. Here is the method:
One of the common side effects of many antipsychotic drugs is sedation. It has been shown that agents that have sedative actions in man have the same effect in animals. The purpose of these studies was to evaluate the effect of test compounds on the locomotor activity in rats, which is used to assess the sedative properties of antipsychotic compounds.
The animals (male Sprague Dawley rats, about 300-450 g; Charles River) were assessed for ambulation for 30 minutes before and for 30 min after vehicle or test compounds. […] Locomotor activity is quantified by the number of photobeams crossed by the animal over several 3×10 min intervals.

The next data set deals with T1, human D2S receptor (Homo sapiens, UniProt P14416).
T1 construct: host or cells: HEK 293 cells
T1 sequence (P14416 1-414 isoform P14416-2): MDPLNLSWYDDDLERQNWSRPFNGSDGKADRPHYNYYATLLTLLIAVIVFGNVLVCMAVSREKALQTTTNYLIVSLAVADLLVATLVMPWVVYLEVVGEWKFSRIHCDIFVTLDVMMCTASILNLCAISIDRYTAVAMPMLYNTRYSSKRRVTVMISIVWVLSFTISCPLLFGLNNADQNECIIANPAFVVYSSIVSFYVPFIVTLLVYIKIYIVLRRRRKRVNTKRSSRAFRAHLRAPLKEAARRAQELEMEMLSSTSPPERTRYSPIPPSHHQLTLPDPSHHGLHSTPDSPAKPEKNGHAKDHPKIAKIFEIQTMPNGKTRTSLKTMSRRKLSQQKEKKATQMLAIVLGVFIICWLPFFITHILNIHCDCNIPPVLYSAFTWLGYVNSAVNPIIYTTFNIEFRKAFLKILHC
The experiment in a line: Adenylyl cyclase (HitHunter cAMP XS) assay in HEK 293 cells expressing human D2S. It is filed as cell-based.

What is called IC50 is the midpoint of a concentration-inhibition curve. On to `CCOC(=O)C[C@H]1CN(C2=Nc3cc(Cl)ccc3Oc3ccccc32)CCN1` [Compound K, (S,E)-ethyl 2-(4-(8-chlorodibenzo[b,f][1,4]oxazepin-11-yl)piperazin-2-yl)acetate], for which the catalepsy entry in the data set with catalepsy in mice was “did not cause catalepsy”. In addition, the “locomotor activity in rat (open field)” value in data set [1] (0.03-10 mg/kg) was “did not reduce”. In addition, at human D2S receptor (HEK 293 cells, 27 μM forskolin (agonist) or plus 30 nM dopamine (antagonist)), the “functional activity at human D2S receptor” value is “partial D2 receptor agonist and a D2 receptor antagonist”. For the same compound, at human D2S receptor (adenylyl cyclase assay, human D2S receptor, read-out: estimated IC50), the IC50 is 13 µM.

Take `O=C(O)C[C@H]1CN(C2=Nc3cc(Cl)ccc3Oc3ccccc32)CCN1` [Compound Q, (S,E)-2-(4-(8-chlorodibenzo[b,f][1,4]oxazepin-11-yl)piperazin-2-yl)acetic acid]: the “locomotor activity in rat (open field)” value in data set [1] (10 mg/kg) is on record as “did not reduce”.

Values taken from patent US20120178738A1, “DIBENZO [B,F] [1,4]OXAZAPINE COMPOUNDS” (ARYX THERAPEUTICS, INC., priority 2007, published 2012).
